“And” between values parts separate entries of the source, which are not always exact repeats. Equal entries are not always repeated. Inconclusive results and toxic doses are left out.
Tested on: CD2F1 mice, L1210 leukemia ip, survival T/C
Assay: NCI In Vivo Anticancer Drug Screen. Data for tumor model L1210 Leukemia (intraperitoneal) in CD2F1 (CDF1) mice
Details: higher = longer survival
Outline: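 Compound-dosed mice with transplantable tumor versus matched vehicle controls; endpoint ratio T/C reported.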

[1] = endpoint: mean survival time, dose: 100.0 mg/kg/injection, schedule: Q01DX009 (ip), vehicle: saline with Tween-80
[2] = endpoint: mean survival time, dose: 100.0 mg/kg/injection, schedule: Q04DX003 (ip), vehicle: saline with Tween-80
[3] = endpoint: mean survival time, dose: 200.0 mg/kg/injection, schedule: Q01DX009 (ip), vehicle: saline with Tween-80
[4] = endpoint: mean survival time, dose: 200.0 mg/kg/injection, schedule: Q04DX003 (ip), vehicle: saline with Tween-80
[5] = endpoint: mean survival time, dose: 400.0 mg/kg/injection, schedule: Q01DX009 (ip), vehicle: saline with Tween-80
[6] = endpoint: mean survival time, dose: 400.0 mg/kg/injection, schedule: Q04DX003 (ip), vehicle: saline with Tween-80
[7] = endpoint: mean survival time, dose: 50.0 mg/kg/injection, schedule: Q01DX001 (ip), vehicle: Klucel (hydroxypropylcellulose) (HPC)
[8] = endpoint: mean survival time, dose: 100.0 mg/kg/injection, schedule: Q01DX001 (ip), vehicle: Klucel (hydroxypropylcellulose) (HPC)
[9] = endpoint: mean survival time, dose: 200.0 mg/kg/injection, schedule: Q01DX001 (ip), vehicle: Klucel (hydroxypropylcellulose) (HPC)
[10] = endpoint: mean survival time, dose: 100.0 mg/kg/injection, schedule: Q04DX003 (ip), vehicle: saline
[11] = endpoint: mean survival time, dose: 200.0 mg/kg/injection, schedule: Q04DX003 (ip), vehicle: saline
[12] = endpoint: mean survival time, dose: 400.0 mg/kg/injection, schedule: Q04DX003 (ip), vehicle: saline

Structure (SMILES): O=[N+]([O-])c1ccc2c(c1)CS(=O)(=O)O2
- T/C [1]: 109 % of control
- T/C [2]: 103 % of control
- T/C [3]: 107 % of control
- T/C [4]: 100 % of control
- T/C [5]: 107 % of control
- T/C [6]: 95 % of control

Structure (SMILES): S=P(N1CCOCC1)(N1CC1)N1CC1
- T/C (endpoint: mean survival time, dose: 10.0 mg/kg/injection, schedule: Q01DX007 (ip), vehicle: saline): 116 % of control
- T/C (endpoint: mean survival time, dose: 10.0 mg/kg/injection, schedule: Q03DX003 (ip), vehicle: saline): 118 % of control
- T/C (endpoint: mean survival time, dose: 10.0 mg/kg/injection, schedule: Q04DX003 (ip), vehicle: saline): 114 % of control
- T/C (endpoint: mean survival time, dose: 12.5 mg/kg/injection, schedule: Q01DX Z (ip), vehicle: carboxymethylcellulose (CMC)): 118 % of control
- T/C (endpoint: mean survival time, dose: 20.0 mg/kg/injection, schedule: Q01DX007 (ip), vehicle: saline): 172 % of control
- T/C (endpoint: mean survival time, dose: 20.0 mg/kg/injection, schedule: Q01DX009 (ip), vehicle: saline): 171 % of control
- T/C (endpoint: mean survival time, dose: 25.0 mg/kg/injection, schedule: Q01DX Z (ip), vehicle: carboxymethylcellulose (CMC)): 100 % of control
- T/C (endpoint: mean survival time, dose: 40.0 mg/kg/injection, schedule: Q01DX007 (ip), vehicle: saline): 86 % of control
- T/C (endpoint: mean survival time, dose: 40.0 mg/kg/injection, schedule: Q01DX009 (ip), vehicle: saline): 100 % of control
- T/C (endpoint: mean survival time, dose: 40.0 mg/kg/injection, schedule: Q03DX003 (ip), vehicle: saline): 223 % of control
- T/C (endpoint: mean survival time, dose: 40.0 mg/kg/injection, schedule: Q04DX003 (ip), vehicle: saline): 218 % of control

Structure (SMILES): [Cl][Pt+2][Cl].[NH-]CC1(C[NH-])CCCC1
- T/C (endpoint: mean survival time, dose: 1.56 mg/kg/injection, schedule: Q04DX003 (ip), vehicle: saline): 122 % of control
- T/C (endpoint: mean survival time, dose: 3.12 mg/kg/injection, schedule: Q04DX003 (ip), vehicle: saline): 152 % of control
- T/C (endpoint: mean survival time, dose: 6.25 mg/kg/injection, schedule: Q04DX003 (ip), vehicle: saline): 197 % of control
- T/C (endpoint: mean survival time, dose: 12.5 mg/kg/injection, schedule: Q04DX003 (ip), vehicle: saline with Tween-80): 160 % of control
- T/C (endpoint: mean survival time, dose: 12.5 mg/kg/injection, schedule: Q04DX003 (ip), vehicle: saline): 260 % of control
- T/C (endpoint: mean survival time, dose: 25.0 mg/kg/injection, schedule: Q04DX003 (ip), vehicle: saline with Tween-80): 98 % of control
- T/C (endpoint: mean survival time, dose: 25.0 mg/kg/injection, schedule: Q04DX003 (ip), vehicle: saline): 114 % of control
- T/C (endpoint: median survival time, dose: 1.0 mg/kg/injection, schedule: Q01DX009 (ip), vehicle: saline): 232 % of control
- T/C (endpoint: median survival time, dose: 2.0 mg/kg/injection, schedule: Q01DX009 (ip), vehicle: saline): 175 % of control
- T/C (endpoint: median survival time, dose: 4.0 mg/kg/injection, schedule: Q01DX001 (ip), vehicle: saline): 201 % of control
- T/C (endpoint: median survival time, dose: 4.0 mg/kg/injection, schedule: Q01DX009 (ip), vehicle: saline): 101 % of control
- T/C (endpoint: median survival time, dose: 8.0 mg/kg/injection, schedule: Q01DX001 (ip), vehicle: saline): 200 % of control
- T/C (endpoint: median survival time, dose: 8.0 mg/kg/injection, schedule: Q01DX009 (ip), vehicle: saline): 97 % of control
- T/C (endpoint: median survival time, dose: 12.0 mg/kg/injection, schedule: Q01DX001 (ip), vehicle: saline): 104 % of control
- T/C (endpoint: median survival time, dose: 18.0 mg/kg/injection, schedule: Q01DX001 (ip), vehicle: saline): 97 % of control

Structure (SMILES): CN(C)CCCNC1=C(Cl)C(=O)C(NCCCN(C)C)=C(Cl)C1=O
- T/C (endpoint: median survival time, dose: 6.25 mg/kg/injection, schedule: Q01DX009 (ip), vehicle: Klucel (hydroxypropylcellulose) (HPC)): 97 % of control
- T/C (endpoint: median survival time, dose: 12.5 mg/kg/injection, schedule: Q01DX009 (ip), vehicle: Klucel (hydroxypropylcellulose) (HPC)): 94 % of control
- T/C (endpoint: median survival time, dose: 25.0 mg/kg/injection, schedule: Q01DX009 (ip), vehicle: Klucel (hydroxypropylcellulose) (HPC)): 96 % of control
- T/C (endpoint: median survival time, dose: 50.0 mg/kg/injection, schedule: Q01DX009 (ip), vehicle: Klucel (hydroxypropylcellulose) (HPC)): 97 % of control

Structure (SMILES): O=C(Nc1ccc(C2=NCCN2)cc1)Nc1cccc(NC(=O)Nc2ccc(C3=NCCN3)cc2)c1
- T/C (endpoint: mean survival time, dose: 1.8 mg/kg/injection, schedule: Q01DX008 (iv), vehicle: other): 103 % of control
- T/C (endpoint: mean survival time, dose: 3.75 mg/kg/injection, schedule: Q01DX008 (iv), vehicle: other): 103 % of control

Structure (SMILES): CC1=C(/C=C/C(C)(O)CC2=NC(C)(C)CO2)C(C)(C)CCC1 (centres undefined)
- T/C (endpoint: mean survival time, dose: 25.0 mg/kg/injection, schedule: Q04DX002 (ip), vehicle: saline with Tween-80): 101 % of control
- T/C (endpoint: mean survival time, dose: 50.0 mg/kg/injection, schedule: Q04DX002 (ip), vehicle: saline with Tween-80): 93 % of control
- T/C (endpoint: mean survival time, dose: 100.0 mg/kg/injection, schedule: Q04DX002 (ip), vehicle: saline with Tween-80): 93 % of control
- T/C [2]: 91 % of control
- T/C [6]: 86 % of control

Structure (SMILES): CCCCNCCC#N
- T/C [2]: 102 % of control
- T/C [4]: 95 % of control
- T/C [6]: 98 % of control

Structure (SMILES): C=CS(=O)(=O)CCc1ccccc1
- T/C [7]: 101 % of control
- T/C [8]: 111 % of control
- T/C [9]: 108 % of control

Structure (SMILES): Nc1n[n+](-c2ccccc2)no1
- T/C (endpoint: mean survival time, dose: 1.56 mg/kg/injection, schedule: Q01DX009 (ip), vehicle: water): 106 % of control
- T/C (endpoint: mean survival time, dose: 3.12 mg/kg/injection, schedule: Q01DX009 (ip), vehicle: water): 97 % of control and 100 % of control
- T/C (endpoint: mean survival time, dose: 6.25 mg/kg/injection, schedule: Q01DX009 (ip), vehicle: water): 102 % of control and 105 % of control
- T/C (endpoint: mean survival time, dose: 12.5 mg/kg/injection, schedule: Q01DX009 (ip), vehicle: water): 101 % of control and 108 % of control
- T/C (endpoint: mean survival time, dose: 25.0 mg/kg/injection, schedule: Q01DX009 (ip), vehicle: water): 121 % of control and 111 % of control
- T/C (endpoint: mean survival time, dose: 50.0 mg/kg/injection, schedule: Q01DX009 (ip), vehicle: water): 94 % of control

Structure (SMILES): COc1ccc([N+](=O)[O-])cc1NC(=O)Nc1cccc(C(F)(F)F)c1
- T/C [7]: 101 % of control
- T/C [8]: 96 % of control
- T/C [9]: 93 % of control

Structure (SMILES): COC(=O)C1(C)CSCCC1=O (centres undefined)
- T/C [10]: 107 % of control
- T/C [11]: 96 % of control
- T/C [12]: 96 % of control

Structure (SMILES): Nc1ccc(-c2ccc(N)c(Cl)c2)cc1Cl
- T/C (endpoint: mean survival time, dose: 100.0 mg/kg/injection, schedule: Q01DX009 (ip), vehicle: Klucel (hydroxypropylcellulose) (HPC)): 105 % of control
- T/C (endpoint: mean survival time, dose: 200.0 mg/kg/injection, schedule: Q01DX009 (ip), vehicle: Klucel (hydroxypropylcellulose) (HPC)): 103 % of control
- T/C (endpoint: mean survival time, dose: 400.0 mg/kg/injection, schedule: Q01DX009 (ip), vehicle: Klucel (hydroxypropylcellulose) (HPC)): 100 % of control

Structure (SMILES): O=C1CNC(c2ccccc2)C(c2ccccc2)N1 (centres undefined)
- T/C [2]: 100 % of control
- T/C [4]: 102 % of control
- T/C [6]: 101 % of control

Structure (SMILES): Cc1cc(C)c(O)c(C)c1.[Hg]
- T/C (endpoint: mean survival time, dose: 1.56 mg/kg/injection, schedule: Q01DX001 (ip), vehicle: Klucel (hydroxypropylcellulose) (HPC)): 98 % of control
- T/C (endpoint: mean survival time, dose: 3.13 mg/kg/injection, schedule: Q01DX001 (ip), vehicle: Klucel (hydroxypropylcellulose) (HPC)): 92 % of control
- T/C (endpoint: mean survival time, dose: 6.25 mg/kg/injection, schedule: Q01DX001 (ip), vehicle: Klucel (hydroxypropylcellulose) (HPC)): 103 % of control

Structure (SMILES): CCCCCCCCCCCC(CCCCCCCCCC)CCCCCCCCCC
- T/C (endpoint: mean survival time, dose: 100.0 mg/kg/injection, schedule: Q01DX001 (ip), vehicle: saline sonified): 101 % of control
- T/C (endpoint: mean survival time, dose: 200.0 mg/kg/injection, schedule: Q01DX001 (ip), vehicle: saline sonified): 104 % of control
- T/C (endpoint: mean survival time, dose: 400.0 mg/kg/injection, schedule: Q01DX001 (ip), vehicle: saline sonified): 108 % of control

Structure (SMILES): CCC1(O)C(=O)OCc2c1cc1n(c2=O)Cc2cc3ccc(C)cc3nc2-1 (centres undefined)
- T/C (endpoint: median survival time, dose: 10.0 mg/kg/injection, schedule: Q04DX002 (ip), vehicle: saline with Tween-80): 108 % of control

Structure (SMILES): COc1cc(NS(C)(=O)=O)ccc1Nc1c2ccccc2nc2cc(C(F)(F)F)c(N)cc12
- T/C [9]: 154 % of control
- T/C (endpoint: mean survival time, dose: 400.0 mg/kg/injection, schedule: Q01DX001 (ip), vehicle: Klucel (hydroxypropylcellulose) (HPC)): 265 % of control

Structure (SMILES): Cc1ccc([N+](=O)[O-])cc1NC(=O)Oc1ccc(Cl)cc1Cl
- T/C (endpoint: mean survival time, dose: 50.0 mg/kg/injection, schedule: Q01DX009 (ip), vehicle: saline with Tween-80): 102 % of control
- T/C [1]: 103 % of control

Structure (SMILES): CC(C)CNC(=O)Nc1ccccc1C(F)(F)F
- T/C [1]: 96 % of control
- T/C [3]: 98 % of control
- T/C [5]: 91 % of control

Structure (SMILES): CCOC(=O)NC1CC(OC(=O)c2ccc(C)cc2)C(COC(=O)c2ccc(C)cc2)O1 (centres undefined)
- T/C [1]: 95 % of control
- T/C [3]: 92 % of control
- T/C [5]: 100 % of control

Structure (SMILES): CNC(C)COc1ccc(O)cc1 (centres undefined)
- T/C (endpoint: mean survival time, dose: 100.0 mg/kg/injection, schedule: Q01DX009 (ip), vehicle: saline): 110 % of control
- T/C [10]: 108 % of control
- T/C (endpoint: mean survival time, dose: 200.0 mg/kg/injection, schedule: Q01DX009 (ip), vehicle: saline): 110 % of control
- T/C [11]: 104 % of control
- T/C [12]: 114 % of control
